{"source": "patent US11090292B2", "about": "“Compositions and methods of use of an inappetance-controlling compound” (Aratana Therapeutics, Inc., priority 2012, dated 2021)", "key": {"IGF-1": {"test_system": "IGF-1", "test": "Example 4: serum IGF-1 concentration", "format": "in vivo, Beagle dogs", "procedure": "A controlled, seven-day study was performed to assess the impact of different capromorelin-dosing regimens on the production of IGF-1, GH, and cortisol. The different capromorelin-dosing regimens were also assessed for the impact on food intake and changes in body mass.\n[…] were divided into one of three treatment groups, with one negative control group and two active treatment groups. Each of the three treatment groups included three males and three females. The first group received a placebo formulation (i.e., deionized water) twice per day, via oral gavage. The second group received a once-daily dose of the capromorelin composition at a concentration of 3 mg/kg, via oral gavage. The third group received a twice-daily dose of the capromorelin composition at a concentration of 3 mg/kg, via oral gavage.\nDuring the ten day study period, on an at least once-daily basis, each of the dogs was monitored for clinical observations, mortality, moribundity, body mass, acceptability/palatability, and food consumption. Serum samples were taken to measure capromorelin concentration, GH concentration, IGF-1 concentration, and cortisol concentration. Serum samples were taken on days 1, 2, 4, and 7 at −15 minutes (pre-dose), immediately prior to dosing (0 minutes) and 30, 45, 60, 90, 120, 240, 360, and/or 480 minutes post dosing. Additional serum samples were taken at 8 AM on Day 10 of the study to assess long-term impact of the active treatments."}, "[1]": {"test": "Example 5: capromorelin concentration in serum", "format": "in vivo, Beagle dogs", "procedure": "(§1) In order to further refine the dosing regimen that would provide an appropriate blood profile of capromorelin and desired results from the perspective of increased food intake and weight gain, an additional series of experiments were conducted. In these experiments, twenty-four adult (male and female) Beagle dogs weighing approximately 9 to 13 kilograms were randomly divided into four groups. Group 1 received a placebo formulation, without any active compound, two times per day; Group 2 received a composition comprising 3 mg/kg of body weight of capromorelin one time per day; Group 3 received a composition comprising 4.5 mg/kg of body weight of capromorelin one time per day; and Group 4 received a composition comprising 3 mg/kg of body weight of capromorelin two times per day.\nIn particular, on the first day of dosing, Day 1, through the last day of dosing, Day 7, the compositions were orally administered (i.e., using a syringe) to the animals in a flavored formulation of the following composition: […]\nIn these experiments, the animals were orally administered the flavored formulation at approximately 8:00 AM and, for Group 4 only, again at 6:00 PM. The animals were fed at 10:00 AM beginning seven days prior to Day 1 and continuing for the duration of the study. The animals were offered twice the normal amount of food. Approximately two hours after the food offering, the remainder was removed and weighed to assess food intake. This restricted feeding regime was started at Day −7 to allow the animals to transition to a normal feed intake before the study was initiated. Food consumption was calculated and recorded on Days −7 through Day 7. Baseline food consumption was calculated for each individual dog as the average number of grams of food consumed on Days −3, −2, and −1. The study period food consumption was calculated for each individual dog as the average of Days 1 through 7. Body weights were collected on Days −1, 3, and 7. […]"}, "growth hormone": {"test_system": "growth hormone", "test": "Example 5: serum growth hormone", "format": "in vivo, Beagle dogs", "details": "Groups 2-4; mitigated by Day 4, further reduced by Day 7", "procedure": "as §1, with “day. […]” for “day.”\nIn these experiments, the animals were orally administered the flavored formulation at approximately 8:00 AM and, for Group 4 only, again at 6:00 PM. […] Food consumption was calculated and recorded on Days −7 through Day 7. Baseline food consumption was calculated for each individual dog as the average number of grams of food consumed on Days −3, −2, and −1. The study period food consumption was calculated for each individual dog as the average of Days 1 through 7. […]"}, "[2]": {"test": "Example 9: capromorelin concentration in serum", "format": "in vivo", "procedure": "A four-day study was performed to further assess the pharmacokinetics of formulation 8 from Example 3 (i.e., the most “well-accepted” formulation) in cats. Moreover, the administration of formulation 8 was also analyzed to determine if administration of this formulation could induce sustained production of IGF-1 and relatively depressed, mitigated, or lower levels of cortisol. The different capromorelin-dosing regimens were also assessed for the impact on food intake and changes in body mass.\nTwenty-four adult cats were divided into one of four treatment groups, with all four groups as active treatment groups. Each of the active treatment groups included 6 cats. The first group received a sterile injection of a capromorelin composition containing a 0.75 mg/kg concentration of capromorelin once per day during the four-day experiment. The second group received a once-daily sterile injection of a capromorelin composition at a concentration of 2 mg/kg. The third group received a once-daily dose of a capromorelin composition at a concentration of 2 mg/kg, via oral gavage. […]\nDuring the seven day study period, on an at least once-daily basis, each of the cats was monitored for clinical observations, mortality, moribundity, body mass, acceptability/palatability, and food consumption. […]"}}}
{"compound": "CN1N=C2CCN(C(=O)[C@@H](COCc3ccccc3)NC(=O)C(C)(C)N)C[C@@]2(Cc2ccccc2)C1=O.O=C(O)C(O)C(O)C(=O)O", "note": "[capromorelin]", "values": [{"measurement": "serum IGF-1 levels versus deionized water three days after terminating treatment", "setting": "IGF-1; Day 10", "value": "not significantly different"}, {"measurement": "increase in serum IGF-1 concentration at eight hours post administration relative to time 0", "setting": "IGF-1; once-daily 3 mg/kg, day 1", "value": "approximately 83.9%"}, {"measurement": "increase in serum IGF-1 concentration at eight hours post administration relative to time 0", "setting": "IGF-1; once-daily 3 mg/kg, day 4", "value": "approximately 39.5%"}, {"measurement": "increase in serum IGF-1 concentration at eight hours post administration relative to time 0", "setting": "IGF-1; once-daily 3 mg/kg, day 7", "value": "~36.8", "unit": "%"}, {"measurement": "increase in serum IGF-1 concentration at eight hours post administration relative to time 0", "setting": "IGF-1; twice-daily 3 mg/kg, day 1", "value": "approximately 50.6%"}, {"measurement": "increase in serum IGF-1 concentration at eight hours post administration relative to time 0", "setting": "IGF-1; twice-daily 3 mg/kg, day 4", "value": "approximately 15.4%"}, {"measurement": "increase in serum IGF-1 concentration at eight hours post administration relative to time 0", "setting": "IGF-1; twice-daily 3 mg/kg, day 7", "value": "~13.3", "unit": "%"}, {"measurement": "serum capromorelin by 8 hours", "setting": "[1]; Days 1 and 7, Groups 2-4", "value": "back to baseline levels"}, {"measurement": "time post administration of initial spike of serum capromorelin", "setting": "[1]; Days 1 and 7, Groups 2-4", "value": 30, "unit": "min"}, {"measurement": "capromorelin accumulation", "setting": "[1]; seven days of dosing", "value": "no evidence of capromorelin accumulation"}, {"measurement": "growth hormone in the serum", "setting": "growth hormone", "value": "increase in growth hormone in the serum on Day 1"}, {"measurement": "levels of capromorelin in the serum", "setting": "[2]; oral formulations", "value": "relatively low levels of capromorelin in the serum"}, {"measurement": "time post administration of peak capromorelin concentration in the serum", "setting": "[2]; sterile injectable formulation", "value": "about 0.5 h"}]}
